Experimental data: publication PMC7438329 (Scientific Reports, 2020)
Counter-ions that a name gives are not always drawn. Like-named read-outs stand apart in the source and are kept apart here.

Assays:
zebrafish embryos [1] = type: in vivo, zebrafish (Danio rerio)
Description: To this end, three zebrafish embryos were treated with a drug (10 ~ 100 μM) in a well of 96-well plate at the onset of 24 hpf and then assayed for touch responses at 27 and 48 hpf, when zebrafish embryos show tactile-induced short-distance forward movement and escape swimming, respectively.
Two chemical libraries from Kyoto University and Nagoya University, composed of total ~ 1,000 bioactive compounds, were used in this study. The 2 µl of chemical compounds (1 ~ 10 mM) dissolved in DMSO were diluted to 200 µl with E3 medium (5 mM NaCl, 0.17 mM KCl, 0.33 mM CaCl2, 0.33 mM MgSO4) and transferred to 96-well plate. Three zebrafish embryos (24 hpf) were transferred into each well of the plate and incubated in a 28.5 °C incubator. At 27 hpf, three embryos with a small amount of drug solution were transferred to a 90-mm dish containing 15 ml of E3 medium and subjected to touch response using forceps under a dissection microscope Leica MZ16. After this assay, embryos with a small amount of E3 solution were transferred back to the drug solution in 96-well plate and incubated in the 28.5 °C incubator. At 48 hpf, embryos were transferred to a 90-mm dish containing 15 ml of E3 medium again and subjected to the touch response.

zGlyR α1 = biological target: T1, zGlyR α1 (Danio rerio, UniProt O93430); experiment: two-electrode voltage-clamp of Xenopus oocytes expressing homomeric zebrafish α1 GlyR; type: cell-based
T1 construct: Full-length cDNAs encoding zebrafish GlyR α1 and βb and human GlyR α1 and β subunits were used in this study; expressed in transfected cells; host or cells: Xenopus laevis oocytes injected with cRNA
T1 sequence (O93430 25-444): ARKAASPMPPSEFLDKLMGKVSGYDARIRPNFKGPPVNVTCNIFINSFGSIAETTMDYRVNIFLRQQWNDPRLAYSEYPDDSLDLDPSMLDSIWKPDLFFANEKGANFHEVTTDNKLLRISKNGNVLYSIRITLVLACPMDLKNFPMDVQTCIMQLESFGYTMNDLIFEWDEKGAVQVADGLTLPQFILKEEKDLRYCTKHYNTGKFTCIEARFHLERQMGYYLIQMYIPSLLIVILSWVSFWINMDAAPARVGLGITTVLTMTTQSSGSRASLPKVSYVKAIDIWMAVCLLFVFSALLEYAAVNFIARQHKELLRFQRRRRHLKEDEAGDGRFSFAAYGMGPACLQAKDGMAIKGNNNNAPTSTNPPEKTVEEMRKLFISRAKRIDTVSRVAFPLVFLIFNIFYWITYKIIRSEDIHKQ
Description: (§1) To assess the drug sensitivity of GlyRs, we employed electrophysiology using Xenopus oocytes.
(§2) Full-length cDNAs encoding zebrafish GlyR α1 and βb and human GlyR α1 and β subunits were used in this study. Capped cRNAs for expression in Xenopus laevis oocytes were synthesized from linearized templates using SP6 mMessage mMachine SP6 transcription kit (Thermo Fisher Scientific) as described previously. Oocytes were injected with five femtomoles of cRNA using a Nanoject II (Drummond Scientific). Oocytes were moved to 48-well plates in Barth’s solution (88 mM NaCl, 1 mM KCl, 2.4 mM NaHCO3, 0.33 mM Ca (NO3)2, 0.41 mM CaCl2, 0.82 mM MgSO4, 10 mM HEPES at pH 7.5 with NaOH, supplemented with 50 µg/ml gentamicin and 100 units/ml penicillin/streptomycin) and incubated at 18 °C for 24–48 h prior to recording. Oocyte recording solution (90 mM NaCl, 1 mM KCl, 2 mM CaCl2, 1 mM MgCl2, 10 mM HEPES at pH 7.5 with NaOH) and drug solutions of seven different concentrations were flew into the oocyte chamber using a BPS-8 solution switcher (ALA Scientific). Borosilicate electrodes had resistances of ~ 2.0 MΩ when filed with 3 M KCl. […] Signals were low-pass filtered at 10 Hz, and sampled at 100 Hz. […] Statistical significance was assessed using the pair-wise analysis of variance.

zGlyR α1 + zGlyRβb = zGlyR α1 + zGlyRβb (Danio rerio, UniProt O93430+Q6DC22); experiment: two-electrode voltage-clamp of Xenopus oocytes expressing heteromeric zebrafish α1βb GlyR; type: cell-based
Chain of zGlyR α1 + zGlyRβb (Q6DC22 entry or part of it, one chain of several): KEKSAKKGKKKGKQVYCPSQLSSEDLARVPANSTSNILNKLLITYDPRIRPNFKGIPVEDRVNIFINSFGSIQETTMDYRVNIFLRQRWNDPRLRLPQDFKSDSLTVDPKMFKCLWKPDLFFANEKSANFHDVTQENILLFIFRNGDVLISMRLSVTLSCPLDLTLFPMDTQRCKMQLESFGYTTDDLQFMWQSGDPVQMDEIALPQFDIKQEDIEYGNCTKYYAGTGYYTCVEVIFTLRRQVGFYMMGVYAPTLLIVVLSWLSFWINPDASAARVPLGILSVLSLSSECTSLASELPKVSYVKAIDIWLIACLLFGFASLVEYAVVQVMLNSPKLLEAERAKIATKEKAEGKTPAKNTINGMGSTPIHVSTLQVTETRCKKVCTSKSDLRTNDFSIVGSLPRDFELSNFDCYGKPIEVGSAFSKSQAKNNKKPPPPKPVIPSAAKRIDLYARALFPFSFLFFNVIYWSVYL
Description: as §1, §2

hGlyR α1 = biological target: T2, hGlyR α1 (Homo sapiens, UniProt P23415); experiment: two-electrode voltage-clamp of Xenopus oocytes expressing homomeric human α1 GlyR; type: cell-based
T2 construct: Full-length cDNAs encoding zebrafish GlyR α1 and βb and human GlyR α1 and β subunits were used in this study; expressed in transfected cells; host or cells: Xenopus laevis oocytes injected with cRNA
T2 sequence (P23415 29-457): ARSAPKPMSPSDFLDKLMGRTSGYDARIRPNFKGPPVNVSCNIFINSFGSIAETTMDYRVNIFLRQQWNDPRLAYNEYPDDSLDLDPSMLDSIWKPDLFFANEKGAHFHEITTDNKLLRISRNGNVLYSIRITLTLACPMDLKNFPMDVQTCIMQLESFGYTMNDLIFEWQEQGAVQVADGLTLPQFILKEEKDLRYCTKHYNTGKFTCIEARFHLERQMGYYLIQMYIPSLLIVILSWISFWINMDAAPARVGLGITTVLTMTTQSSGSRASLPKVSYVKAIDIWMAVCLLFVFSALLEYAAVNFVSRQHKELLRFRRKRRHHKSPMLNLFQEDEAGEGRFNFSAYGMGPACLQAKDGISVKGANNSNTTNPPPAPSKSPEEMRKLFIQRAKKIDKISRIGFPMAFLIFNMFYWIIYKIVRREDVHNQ
Description: as §1
(§3) We also investigated whether niflumic acid blocks human GlyRs.
as §2

hGlyR α1 + hGlyRβb = biological target: T3, hGlyR α1 + hGlyRβb (Homo sapiens, UniProt P23415+P48167); experiment: two-electrode voltage-clamp of Xenopus oocytes expressing heteromeric human α1β GlyR; type: cell-based
T3 construct: Full-length cDNAs encoding zebrafish GlyR α1 and βb and human GlyR α1 and β subunits were used in this study; expressed in transfected cells; host or cells: Xenopus laevis oocytes injected with cRNA
T3 sequence (P48167 23-497, one chain of several): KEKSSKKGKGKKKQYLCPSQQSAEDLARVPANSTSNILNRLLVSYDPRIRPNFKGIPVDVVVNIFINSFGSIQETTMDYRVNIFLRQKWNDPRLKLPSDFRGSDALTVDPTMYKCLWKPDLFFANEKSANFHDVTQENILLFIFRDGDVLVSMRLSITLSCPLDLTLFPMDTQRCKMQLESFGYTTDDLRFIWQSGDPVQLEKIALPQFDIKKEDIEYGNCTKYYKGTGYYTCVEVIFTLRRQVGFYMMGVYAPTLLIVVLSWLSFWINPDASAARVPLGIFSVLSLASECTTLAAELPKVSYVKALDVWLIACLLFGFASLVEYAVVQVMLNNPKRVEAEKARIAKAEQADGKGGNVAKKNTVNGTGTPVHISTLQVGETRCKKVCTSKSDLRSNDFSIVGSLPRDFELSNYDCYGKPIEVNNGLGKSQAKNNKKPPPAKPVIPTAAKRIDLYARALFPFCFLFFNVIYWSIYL
Description: as §1, §3, §2

zebrafish GlyRs = biological target: T4, zebrafish GlyRs (Danio rerio, UniProt O93430); experiment: cell-based; type: cell-based; conditions: rounded value in discussion; read-out: IC50 values of GlyRs expressed in Xenopus oocytes
T4 sequence (O93430 25-444): T1 sequence (O93430 25-444)
Description: as §2

zebrafish embryos [2] = type: in vivo, zebrafish (Danio rerio); remark: listed apart in the source
zebrafish embryos [3] = experiment: video recording of zebrafish touch response at 48 hpf in the presence of drug; type: in vivo, zebrafish (Danio rerio); conditions: for tactile response of zebrafish embryos at 48 hpf: bath application 30 min: 70 μM strychnine, 5 mM picrotoxin, 200 μM nifedipine, 500 μM niflumic acid; for drug concentration efficient for inducing abnormal touch response: zebrafish embryos 48 hpf, bath application
Text: Tactile-evoked zebrafish movements in the presence of control 1% DMSO or drug were video recorded at 48 hpf using a dissection microscope. Touch responses elicited by tactile stimulation delivered to the tail with forceps were captured with a high-speed CCD camera at 200 frames per second (HAS-220, Ditect) as described previously.

homomeric α GlyRs = conditions: mammals; cited from earlier work
heteromeric αβ GlyRs = conditions: mammals; cited from earlier work
[4] = statement in discussion, no reference given; cited from earlier work
[5] = with 200 μM glycine, mean ± SEM, 10 oocytes
[6] = drug 10 ~ 100 μM, 1% DMSO, from 24 hpf, touch responses at 27 and 48 hpf
[7] = read-out: IC50 of inhibition of glycine current, with 200 μM glycine, mean ± SEM, 10 oocytes
[8] = purchased drugs, several different concentrations

COC(=O)C1=C(C)NC(C)=C(C(=O)OC)C1c1ccccc1[N+](=O)[O-] [Nifedipine]
Response 1st screening (zebrafish embryos [1]; zebrafish, in vivo): Body shrinkage
IC50 (zGlyR α1): 239 ± 38 µM
Hill coeff of drug-mediated inhibition (zGlyR α1; [5]): 0.5 ± 0.1
Hill coeff of drug-mediated inhibition (zGlyR α1 + zGlyRβb): 0.4 ± 0.0
IC50 (zGlyR α1 + zGlyRβb): 162 ± 24 µM
IC50 (hGlyR α1): 171 ± 30 µM
Hill coeff of drug-mediated inhibition (hGlyR α1; [5]): 1.1 ± 0.2
IC50 (hGlyR α1 + hGlyRβb): 130 ± 27 µM
Hill coeff of drug-mediated inhibition (hGlyR α1 + hGlyRβb; [5]): 0.9 ± 0.2
IC50 (zebrafish GlyRs): 200 µM
Response 2nd screening (zebrafish embryos [2]; zebrafish, in vivo): Body shrinkage

Picrotoxin
Response 1st screening (zebrafish embryos [1]; [6]): failed to identify it
tactile response of zebrafish embryos at 48 hpf (zebrafish embryos [3]): shrinkage of the body
drug concentration efficient for inducing abnormal touch response (zebrafish embryos [3]): 5 mM
IC50 (zGlyR α1; [7]): 6.1 ± 0.3 µM
Hill coeff of drug-mediated inhibition (zGlyR α1; [5]): 1.2 ± 0.1
Hill coeff of drug-mediated inhibition (zGlyR α1 + zGlyRβb): 0.9 ± 0.0
IC50 (zGlyR α1 + zGlyRβb; read-out: IC50 of inhibition of glycine current): 6.4 ± 0.3 µM
IC50 (hGlyR α1; [7]): 7.2 ± 0.9 µM
Hill coeff of drug-mediated inhibition (hGlyR α1; [5]): 0.9 ± 0.1
IC50 (hGlyR α1 + hGlyRβb; [7]): 94 µM
Hill coeff of drug-mediated inhibition (hGlyR α1 + hGlyRβb; [5]): **0.5 ± 0.1
IC50 (zebrafish GlyRs): 6 µM
concentration of picrotoxin that blocks homomeric α GlyRs (homomeric α GlyRs): ~ 10 μM
picrotoxin necessary to block heteromeric αβ GlyRs compared with homomeric α GlyRs (heteromeric αβ GlyRs): ten folds more

O=C1C[C@@H]2OCC=C3CN4CC[C@]56c7ccccc7N1[C@H]5[C@H]2[C@H]3C[C@H]46 [Strychnine]
Response 1st screening (zebrafish embryos [1]; [6]): Body shrinkage
tactile response of zebrafish embryos at 48 hpf (zebrafish embryos [3]): bilateral trunk contractions resulting in the shrinkage of the body
Hill coeff of drug-mediated inhibition (zGlyR α1): 0.7 ± 0.2
Hill coeff of drug-mediated inhibition (hGlyR α1): 1.0 ± 0.1
IC50 (hGlyR α1): 0.072 ± 0.012 µM
Hill coeff of drug-mediated inhibition (hGlyR α1 + hGlyRβb): 0.8 ± 0.1
IC50 (hGlyR α1 + hGlyRβb): 0.092 ± 0.019 µM
Response 2nd screening (zebrafish embryos [2]; [8]): Body shrinkage

Cc1c(-c2ccccc2)oc2c(C(=O)OCCN3CCCCC3)cccc2c1=O [Flavoxate hydrochloride]
Response 1st screening (zebrafish embryos [1]; [6]): Weird contraction
Response 2nd screening (zebrafish embryos [2]; [8]): Normal

O=C(O)c1cccnc1Nc1cccc(C(F)(F)F)c1 [Niflumic acid]
Response 1st screening (zebrafish embryos [1]; [6]): Weird contraction
tactile response of zebrafish embryos at 48 hpf (zebrafish embryos [3]): touch-evoked shrinkage of the body
drug concentration efficient for inducing abnormal touch response (zebrafish embryos [3]): 0.5 mM
IC50 (zGlyR α1): 801 ± 91 µM
Hill coeff of drug-mediated inhibition (zGlyR α1; [5]): 0.5 ± 0.1
IC50 (zGlyR α1 + zGlyRβb): 426 µM
Hill coeff of drug-mediated inhibition (zGlyR α1 + zGlyRβb; [5]): 0.9 ± 0.1
IC50 (hGlyR α1): 1070 µM
Hill coeff of drug-mediated inhibition (hGlyR α1; [5]): 1.1 ± 0.2
IC50 (hGlyR α1 + hGlyRβb): 930 ± 111 µM
Hill coeff of drug-mediated inhibition (hGlyR α1 + hGlyRβb; [5]): 1.1 ± 0.1
IC50 (zebrafish GlyRs): 400 µM
Response 2nd screening (zebrafish embryos [2]; [8]): Body shrinkage
solubility in water [4]: insoluble to water

Cc1cccc(Nc2ccccc2C(=O)O)c1C [Mefenamic acid]
Response 1st screening (zebrafish embryos [1]; [6]): Body shrinkage
Response 2nd screening (zebrafish embryos [2]; [8]): Normal

O=c1oc2ccccc2c(O)c1Cc1c(O)c2ccccc2oc1=O [Dicumarol]
Response 1st screening (zebrafish embryos [1]; [6]): Weird contraction
Response 2nd screening (zebrafish embryos [2]; [8]): Normal

Cl.Cl.c1ccc2c3c([nH]c2c1)C1C2CCC(C4CCCNC42)N1CC3 (stereo not shown) [Nitrarine dihydrochloride]
Response 1st screening (zebrafish embryos [1]; [6]): Weird contraction
Response 2nd screening (zebrafish embryos [2]; [8]): Normal

CC(N)CCCC(C)(C)O (stereo not shown) [Heptaminol hydrochloride]
Response 1st screening (zebrafish embryos [1]; [6]): Body shrinkage
Response 2nd screening (zebrafish embryos [2]; [8]): Normal

NCC(=O)O [glycine, Glycine]
Hill coefficient of glycine-dependent gating (zGlyR α1; mean ± SEM, 10 oocytes): 2.7 ± 0.1
EC50 (zGlyR α1; mean ± SEM, 10 oocytes, read-out: EC50 of glycine-dependent gating): 112 ± 10 µM
Hill coefficient of glycine-dependent gating (zGlyR α1 + zGlyRβb): 2.5 ± 0.2
EC50 (zGlyR α1 + zGlyRβb; read-out: EC50 of glycine-dependent gating): 163 µM
Hill coefficient of glycine-dependent gating (hGlyR α1): 2.9 ± 0.1
Hill coefficient of glycine-dependent gating (hGlyR α1 + hGlyRβb): 3.2 ± 0.2

CCCCCC[C@H]1C(=O)O[C@H](C)[C@H](NC(=O)c2cccc(NC=O)c2O)C(=O)O[C@@H](C)[C@@H]1OC(=O)CC(C)C [Antimycin A]
Response 1st screening (zebrafish embryos [1]; [6]): Weird contraction
Response 2nd screening (zebrafish embryos [2]; [8]): Normal

COc1ccc(Cc2nccc3cc(OC)c(OC)cc23)cc1OC [Papaverine hydrochloride]
Response 1st screening (zebrafish embryos [1]; [6]): Weird contraction
Response 2nd screening (zebrafish embryos [2]; [8]): Normal
